Results: the supplement of paper PMC10307832

Key:
Experiment in all cases: relative viability (nuclei count vs DMSO), 5 days (fraction); higher = more cells survive
GSK-J4 + Decitabine = compound: CCOC(=O)CCNc1cc(N2CCc3ccccc3CC2)nc(-c2ccccn2)n1 [GSK-J4] + Nc1ncn([C@H]2C[C@H](O)[C@@H](CO)O2)c(=O)n1 [Decitabine] (partner 2 µM)
In short: (§1)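 Relative viability was taken as the ratio of nuclei in treated wells to nuclei in vehicle wells. Lung cancer cell lines in 1536-well plates received compounds by pin tool one day after seeding, either one drug alone or a fixed anchor-drug dose plus five library-drug doses (not always all listed) in √10 steps. Nuclei were counted on 4× images after 5 days of treatment, and values are medians of duplicate plates.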

AZ3146 + OSI-027 = compound: CN1CCC(CC1)OC2=CC(=C(C=C2)NC3=NC=C4C(=N3)N(C(=O)N4C)C5CCCC5)OC [AZ3146] + COc1cccc2cc(-c3nc([C@H]4CC[C@H](C(=O)O)CC4)n4ncnc(N)c34)[nH]c12 [OSI-027] (partner 0.5 µM)
In short: as §1

GSK-J4 + Crizotinib = compound: CCOC(=O)CCNc1cc(N2CCc3ccccc3CC2)nc(-c2ccccn2)n1 [GSK-J4] + C[C@@H](Oc1cc(-c2cnn(C3CCNCC3)c2)cnc1N)c1c(Cl)ccc(F)c1Cl [Crizotinib] (partner 1 µM)
In short: as §1

GSK-J4 + OSI-027 = compound: CCOC(=O)CCNc1cc(N2CCc3ccccc3CC2)nc(-c2ccccn2)n1 [GSK-J4] + COc1cccc2cc(-c3nc([C@H]4CC[C@H](C(=O)O)CC4)n4ncnc(N)c34)[nH]c12 [OSI-027] (partner 0.5 µM)
In short: as §1

Cell Line	relative viability (GSK-J4 + Decitabine; first compound 0.5 µM)	relative viability (GSK-J4 + Decitabine; first compound 1.581 µM)	relative viability (GSK-J4 + Decitabine; first compound 5 µM)	relative viability (GSK-J4 + Decitabine; first compound 15.81 µM)	relative viability (GSK-J4 + Decitabine; first compound 50 µM)	relative viability (AZ3146 + OSI-027; first compound 0.08 µM)	relative viability (AZ3146 + OSI-027; first compound 0.253 µM)	relative viability (AZ3146 + OSI-027; first compound 0.8 µM)	relative viability (AZ3146 + OSI-027; first compound 2.53 µM)	relative viability (AZ3146 + OSI-027; first compound 8 µM)	relative viability (GSK-J4 + Crizotinib; first compound 0.5 µM)	relative viability (GSK-J4 + Crizotinib; first compound 1.581 µM)	relative viability (GSK-J4 + Crizotinib; first compound 5 µM)	relative viability (GSK-J4 + Crizotinib; first compound 15.81 µM)	relative viability (GSK-J4 + Crizotinib; first compound 50 µM)	relative viability (GSK-J4 + OSI-027; first compound 0.5 µM)	relative viability (GSK-J4 + OSI-027; first compound 1.581 µM)	relative viability (GSK-J4 + OSI-027; first compound 5 µM)	relative viability (GSK-J4 + OSI-027; first compound 15.81 µM)	relative viability (GSK-J4 + OSI-027; first compound 50 µM)
NCI-H1993	0.643	0.554	0.388	0.6	0.507	0.531	0.579	0.541	0.531	0.543	0.826	0.789	0.938	0.841	0.796	0.536	0.485	0.646	0.563	0.527
NCI-H2087	0.312	0.218	0.353	0.224	0.249	0.54	0.656	0.469	0.674	0.525	0.685	0.767	–	0.859	0.516	0.552	–	0.851	0.542	0.421
COR-L23	0.393	0.384	–	0.386	0.352	0.685	0.766	0.781	0.835	0.769	0.671	0.567	–	0.639	0.518	0.753	0.603	–	0.733	0.625
NCI-H1355	0.354	0.364	0.342	0.325	0.335	0.396	0.395	0.324	0.441	0.345	1.06	0.962	1.22	1.02	1.04	0.438	0.316	0.35	0.29	0.278
RERF-LC-KJ	0.624	0.605	0.602	0.654	0.417	0.669	0.548	0.571	0.575	0.398	0.709	0.837	0.721	0.872	0.768	0.582	0.475	0.485	0.473	0.382
NCI-H727	0.856	0.753	0.904	0.87	0.611	0.674	0.56	0.595	0.671	0.413	0.782	–	1.01	0.771	0.443	0.745	0.383	0.842	0.55	0.322
NCI-H1734	0.542	0.447	0.507	0.492	0.376	0.592	0.554	0.641	0.591	0.553	0.645	0.637	0.576	0.57	0.486	0.544	0.518	0.489	0.445	0.372
NCI-H2126	0.625	0.573	0.59	0.53	0.539	0.6	0.706	0.537	0.784	0.649	0.99	0.823	1	0.979	0.917	0.706	0.7	0.949	0.576	0.45
NCI-H1792	0.559	0.472	0.589	0.428	0.43	0.638	0.735	–	0.699	0.714	0.981	0.675	0.911	0.955	0.959	0.671	–	0.778	0.485	0.681
NCI-H23	0.261	0.271	0.303	0.279	0.282	0.621	0.699	0.403	0.746	0.616	0.553	–	0.456	0.413	0.422	0.657	0.363	0.535	0.41	0.392
EPLC-272H	0.408	0.33	0.448	0.339	0.308	–	0.277	0.272	0.309	0.308	0.956	–	1.14	0.816	0.915	0.313	0.255	0.261	0.293	0.192
NCI-H2023	0.212	0.195	0.209	0.174	0.195	0.42	0.364	0.298	0.362	0.21	0.542	0.621	0.678	0.597	0.654	0.409	–	0.403	0.321	0.194
NCI-H647	0.376	0.393	0.374	0.337	0.496	0.55	0.656	0.567	0.684	0.697	1.01	0.759	0.865	0.991	1.01	0.674	0.513	0.391	0.594	0.774
NCI-H661	0.548	0.5	0.485	0.497	0.441	0.74	0.72	0.768	0.764	0.576	0.873	0.969	1.04	0.913	0.814	0.694	0.645	0.559	0.542	0.435
NCI-H1975	0.401	0.352	0.323	0.376	0.394	0.677	0.747	0.785	0.71	0.416	0.928	1.02	–	0.998	1	0.692	0.677	0.46	0.675	0.681
BEN	0.762	0.511	0.489	0.679	0.597	–	0.306	0.206	0.285	0.309	0.865	0.795	–	0.759	0.688	0.334	0.249	–	0.315	0.212
NCI-H1437	0.574	0.363	0.564	0.552	0.358	0.813	0.876	0.821	0.875	0.995	0.76	0.917	0.924	0.897	0.436	0.899	0.761	0.806	0.882	0.648

Cell Line	relative viability (GSK-J4 + Decitabine; first compound 0.5 µM)	relative viability (GSK-J4 + Decitabine; first compound 1.581 µM)	relative viability (GSK-J4 + Decitabine; first compound 5 µM)	relative viability (GSK-J4 + Decitabine; first compound 15.81 µM)	relative viability (GSK-J4 + Decitabine; first compound 50 µM)	relative viability (AZ3146 + OSI-027; first compound 0.08 µM)	relative viability (AZ3146 + OSI-027; first compound 0.253 µM)	relative viability (AZ3146 + OSI-027; first compound 0.8 µM)	relative viability (AZ3146 + OSI-027; first compound 2.53 µM)	relative viability (AZ3146 + OSI-027; first compound 8 µM)	relative viability (GSK-J4 + Crizotinib; first compound 0.5 µM)	relative viability (GSK-J4 + Crizotinib; first compound 1.581 µM)	relative viability (GSK-J4 + Crizotinib; first compound 5 µM)	relative viability (GSK-J4 + Crizotinib; first compound 15.81 µM)	relative viability (GSK-J4 + Crizotinib; first compound 50 µM)	relative viability (GSK-J4 + OSI-027; first compound 0.5 µM)	relative viability (GSK-J4 + OSI-027; first compound 1.581 µM)	relative viability (GSK-J4 + OSI-027; first compound 5 µM)	relative viability (GSK-J4 + OSI-027; first compound 15.81 µM)	relative viability (GSK-J4 + OSI-027; first compound 50 µM)
NCI-H1666	0.747	0.726	0.84	0.666	0.674	0.866	0.881	0.922	0.806	0.839	0.925	–	1.01	0.882	0.462	0.836	0.738	1.15	0.763	0.648
NCI-H2085	0.511	0.501	0.512	0.548	0.491	0.614	0.648	0.649	0.852	0.475	0.839	0.609	0.617	0.794	0.906	0.796	0.66	0.569	0.459	0.515
LXF-289	0.388	0.376	0.403	0.394	0.406	0.775	0.704	0.77	0.781	0.77	0.71	0.768	0.776	0.806	0.753	0.783	0.583	0.53	0.711	0.52
NCI-H322M	0.687	0.687	0.81	0.379	0.671	0.51	0.581	0.509	0.601	0.48	0.976	0.779	0.828	0.91	0.83	0.556	0.506	0.637	0.504	0.49
LU99A	0.791	0.725	–	0.846	0.554	0.28	0.306	0.309	0.317	0.228	0.571	0.534	0.618	0.581	0.474	0.267	0.323	–	0.248	0.236
NCI-H650	0.289	0.326	–	0.283	0.334	0.504	0.461	0.359	0.588	0.506	0.568	0.594	0.525	0.494	0.434	0.508	0.447	0.356	0.427	0.294
PC-14	0.231	0.218	0.259	0.232	0.268	0.805	0.784	0.741	0.853	0.185	0.858	0.896	0.843	0.842	0.855	0.844	0.759	0.777	0.778	0.694
HARA	0.506	0.49	–	0.506	0.369	0.31	0.41	0.436	0.582	0.506	0.975	0.962	–	0.942	0.662	0.548	–	–	0.282	0.219
NCI-H1944	0.411	0.381	–	0.367	0.412	0.382	0.359	0.446	0.464	0.374	1.14	1.06	1.11	1.1	1.07	0.466	0.399	0.309	0.296	0.355
NCI-H1650	0.522	0.343	0.423	0.416	0.294	0.474	0.622	0.515	0.607	0.395	0.847	0.962	0.862	0.935	0.721	0.732	0.365	0.673	0.606	0.553
LK-2	0.222	0.283	0.447	0.262	0.338	0.227	0.181	0.146	0.206	0.178	0.256	0.212	0.203	0.191	0.244	0.268	0.193	0.204	0.152	0.19
HCC-44	0.932	0.716	0.823	1.03	1.06	0.484	0.427	0.416	0.622	0.558	0.759	0.705	0.696	0.825	0.755	0.51	0.31	–	0.387	0.483
NCI-H2405	0.719	0.781	–	0.689	0.757	0.652	0.62	0.582	0.696	0.641	0.847	0.794	–	0.751	0.664	0.682	0.703	–	0.521	0.556
201T	0.826	0.886	0.847	0.831	0.875	0.679	0.567	0.726	0.765	0.685	1.01	1.07	1.01	1.02	0.996	0.668	0.414	0.932	0.691	0.721
NCI-H358	0.206	–	0.216	0.177	0.159	0.762	0.753	0.661	0.82	0.431	0.643	0.579	0.537	0.55	0.589	0.765	0.68	0.795	0.504	0.617
NCI-H596	0.923	1.03	0.906	0.773	1.02	0.683	0.698	0.669	0.762	0.563	1.11	1.04	0.932	0.949	0.992	0.72	0.767	0.857	0.464	0.597
